Counter-ions that a name gives are not always drawn. Like-named read-outs stand apart in the source and are kept apart here.
What was measured:
[1] = target: T1, cloned human δ opioid receptor (Homo sapiens, UniProt P41143); experiment: Receptor binding: inhibition of [3H]diprenorphine binding to cloned human δ opioid receptor
T1 construct: expressed in transfected cells; host or cells: CHO cells (membranes)
Description: (§1) IC50 values were obtained by nonlinear analysis of the data using GraphPad Prism version 3.00 for Windows (GraphPad Software, San Diego). Ki values were obtained by Cheng-Prusoff corrections of IC50 values.
(§2) After dilution in buffer A and homogenization as before, membrane proteins (10-80 μg) in 250 μL were added to mixtures containing test compound and [^3H]diprenorphine (0.5 to 1.0 nM, 40,000 to 50,000 dpm) in 250 μL of buffer A in 96-well deep-well polystyrene titer plates (Beckman). After incubation at room temperature for one hour, the samples were filtered through GF/B filters that had been presoaked in a solution of 0.5% (w/v) polyethylenimine and 0.1% (w/v) bovine serum albumin in water. The filters were rinsed 4 times with 1 mL of cold 50 mM Tris HCl, pH 7.8 and radioactivity remaining on the filters determined by scintillation spectroscopy. Nonspecific binding was determined by the minimum values of the titration curves and was confirmed by separate assay wells containing 10 μM naloxone.
(§3) To determine the equilibrium dissociation constant for the inhibitors (Ki), radioligand bound (cpm) in the presence of various concentrations of test compounds was measured. The concentration to give half-maximal inhibition (EC50) of radioligand binding was determined from a best nonlinear regression fit to the following equation,
(§4) The nonlinear regression fit was performed using the program Prism® (GraphPad Software, San Diego, Calif.). The Ki values were then determined from the EC50 values by the following equation,
(§5) [formula] where [ligand] is the concentration of radioligand and Kd is the equilibrium dissociation constant for the radioligand.
as §1
(§6) [formula] where [ligand] is the concentration of radioligand and Kd is the equilibrium dissociation constant for the radioligand. Receptor-Mediated [^35S]GTP[…]S Binding

[2] = target: T2, cloned human μ opioid receptor (Homo sapiens, UniProt P35372); experiment: Receptor binding: inhibition of [3H]diprenorphine binding to cloned human μ opioid receptor; details: for % Inhibition at 10 μM (μ): [3H]diprenorphine binding, cloned human μ opioid receptor; for inhibition at 10 µM: read-out: % Inhibition at 10 μM (μ)
T2 construct: expressed in transfected cells; host or cells: CHO cells (membranes)
T2 sequence (P35372 whole entry): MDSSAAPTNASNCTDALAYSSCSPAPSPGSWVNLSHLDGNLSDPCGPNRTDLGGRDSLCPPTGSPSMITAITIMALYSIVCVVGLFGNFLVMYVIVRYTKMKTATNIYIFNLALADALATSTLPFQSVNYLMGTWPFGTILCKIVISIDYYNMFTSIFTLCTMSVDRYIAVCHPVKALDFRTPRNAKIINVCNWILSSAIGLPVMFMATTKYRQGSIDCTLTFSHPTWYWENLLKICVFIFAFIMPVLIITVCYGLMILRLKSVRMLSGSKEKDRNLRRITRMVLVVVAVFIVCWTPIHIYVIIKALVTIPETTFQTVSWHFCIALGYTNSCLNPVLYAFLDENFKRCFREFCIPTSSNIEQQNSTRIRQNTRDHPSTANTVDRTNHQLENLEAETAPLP
Description: as §1, §2, §3, §4, §5, §1, §6

[3] = target: T3, cloned human κ opioid receptor (Homo sapiens, UniProt P41145); experiment: Receptor binding: inhibition of [3H]diprenorphine binding to cloned human κ opioid receptor; details: for % Inhibition at 10 μM (κ): [3H]diprenorphine binding; for inhibition at 10 µM: read-out: % Inhibition at 10 μM (κ)
T3 construct: expressed in transfected cells; host or cells: CHO cells (membranes)
T3 sequence (P41145 whole entry): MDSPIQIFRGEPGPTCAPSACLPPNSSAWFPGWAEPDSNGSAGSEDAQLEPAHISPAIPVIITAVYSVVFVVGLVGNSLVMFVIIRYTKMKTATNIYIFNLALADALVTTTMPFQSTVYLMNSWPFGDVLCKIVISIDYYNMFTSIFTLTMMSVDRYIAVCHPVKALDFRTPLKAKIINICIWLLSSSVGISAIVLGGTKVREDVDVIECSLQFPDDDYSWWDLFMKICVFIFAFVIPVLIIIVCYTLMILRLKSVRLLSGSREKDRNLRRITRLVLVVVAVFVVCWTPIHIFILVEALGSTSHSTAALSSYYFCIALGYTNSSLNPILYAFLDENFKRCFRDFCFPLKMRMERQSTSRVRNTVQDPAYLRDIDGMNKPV
Description: as §1, §2, §3, §4, §5, §1, §6

[4] = target: T1, cloned human δ opioid receptor; experiment: Receptor-mediated [35S]GTPγS binding, membranes containing cloned human δ opioid receptors; type: biochemical; details: agonist stimulation of [35S]GTPγS binding
Description: (§7) Assays are carried out in 96-well FlashPlates® (Perkin Elmer Life Sciences, Inc, Boston, Mass.). Membranes prepared from CHO cells expressing the appropriate receptor (50-100 μg of protein) are added to assay mixtures containing agonist with or without antagonists, 100 μM [^35S]GTPγS (approx. 100,000 dpm), 3.0 μM GDP, 75 mM NaCl, 15 mM MgCl2, 1.0 mM ethylene glycol-bis(β-aminoethyl ether)-N,N,N′,N′-tetracetic acid, 1.1 mM dithiothreitol, 10 μg/mL leupeptin, 10 μg/mL pepstatin A, 200 μg/mL bacitracin, and 0.5 μg/mL aprotinin in 50 mM Tris-HCl buffer, pH 7.8. After incubation at room temperature for one hour, the plates are sealed, centrifuged at 800×g in a swinging bucket rotor for 5 min and bound radioactivity determined with a TopCount microplate scintillation counter (Packard Instrument Co., Meriden, Conn.).
as §7, with “pM [^35S]GTP[…]S” for “μM [^35S]GTPγS”

[5] = test system: forced swim behaviour in rats; experiment: Forced swim assay; type: in vivo, Male Sprague-Dawley rats; details: percent change ±SEM relative to vehicle-treated rats
Excerpt: Male Sprague-Dawley rats (approximately 200 g) are placed in a tank of room temperature water for a fifteen min practice swim. Every five sec during the first five min of the practice swim, the rats are rated as immobile (floating with motion needed to keep head above the water), swimming (movement across the swim), or climbing (actively trying to climb out of the tank of water, upward directed movements of the forepaws). The percentage of time the rats spent in each of these responses is calculated.
Approximately 24 h after the practice swim, the rats are treated with vehicle or test compound and placed in the tank for a 5 min swim. As was the case with the practice swim, the rats are rated as immobile, swimming, or climbing during the test swim and the percentage of time spent in each of these responses is calculated. The data is analyzed by one-way ANOVA with post-hoc analysis to compare the behavioral response after vehicle treatment to the behavioral response after drug treatment for each of the three behavioral responses. The level of significance is set at p<0.05.

[6] = test system: FCA-induced hyperalgesia in rats; experiment: Freunds Complete Adjuvant (FCA)-induced hyperalgesia, paw pressure thresholds; type: in vivo
Description: Rats were injected intraplantar with FCA and 24 h later treated with tested compounds administered orally. Paw Pressure Thresholds (PPT) was assessed 30, 60, 120, and 240 minutes after drug treatment.

[7] = test system: acetic acid-induced writhing in mice; experiment: Acetic acid-induced writhing; type: in vivo, Male ICR mice; details: 30 mg/kg (s.c.)
Description: Male ICR mice weighing 20-25 g are injected s.c. with either vehicle or test compound 15 min before they are injected intraperitoneally with 0.6% acetic acid. […] treatment with acetic acid, the number of writhes is counted for 10 minutes. Dose response curves are expressed as the percent inhibition of acetic acid induced writhing, when compared to the mean number of writhes observed in the vehicle-treated mice. The mean percent inhibition (% I) of acetic acid-induced writhing for drug-treated mice is calculated according to the following formula: […]
The mean individual response is the mean number of writhes in mice treated with test compound. The mean vehicle response is the mean number of writhes in mice treated with vehicle.
Male ICR mice weighing 20-25 g are injected s.c. with either vehicle or test compound 15 minutes before they are injected intraperitoneally with 0.6% acetic acid. At 5 minutes after treatment with acetic acid, the number of writhes is counted for 10 minutes. Dose response curves are expressed as the percent inhibition of acetic acid induced writhing, when compared to the mean number of writhes observed in the vehicle-treated mice. The mean percent inhibition (% I) of acetic acid-induced writhing for drug-treated mice is calculated according to the following formula:
[formula] […]

[8] = test system: castor oil-induced diarrhea in mice; experiment: Castor oil-induced diarrhea; type: in vivo; details: Mus musculus, sc, read-out: ED50 (incidence of castor oil-induced diarrhea)
Description: Mice were fasted overnight with water ad libitum. Mice were weighed, dosed orally with 0.6 mL of castor oil and placed in individual cubicles (11 cm×10 cm) lined with a pre-weighed sheet of absorbent paper. Thirty min after receiving castor oil, mice were injected s.c with tested compound. Seventy-five min after dosing with castor oil, the mice and absorbent paper were reweighed and the number of mice with diarrhea (defined as wet, unformed stool) was determined.
Percent inhibition by tested compounds in castor oil-induced diarrhea assay was determined by the following formula: […]

[9] = [3H]diprenorphine displacement, cloned human δ opioid receptor, read-out: Ki(δ)

T1 sequence (P41143 whole entry): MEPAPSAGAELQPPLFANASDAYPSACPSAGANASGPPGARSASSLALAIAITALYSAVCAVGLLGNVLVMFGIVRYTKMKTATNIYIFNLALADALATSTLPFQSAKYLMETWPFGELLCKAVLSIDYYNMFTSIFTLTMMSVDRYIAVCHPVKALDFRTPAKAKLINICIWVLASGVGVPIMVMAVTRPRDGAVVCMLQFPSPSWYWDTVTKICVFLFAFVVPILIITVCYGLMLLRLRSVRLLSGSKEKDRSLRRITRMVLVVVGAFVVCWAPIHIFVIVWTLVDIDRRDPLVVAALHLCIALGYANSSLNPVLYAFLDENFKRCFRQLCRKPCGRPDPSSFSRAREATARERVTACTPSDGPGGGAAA

SMILES | EC50 [4] [nM] | Ki [1] [nM] | inhibition at 10 µM [2] [%] | inhibition at 10 µM [3] [%] | also measured
C1=C(c2ccc(-c3nn[nH]n3)cc2)c2ccccc2OC12CCNCC2.O=C(O)C(F)(F)F [Example Z10, 4-[4-(2H-tetrazolyl)phenyl]-spiro[2H,1-benzopyran-2,4′-piperidine]trifluoroacetic acid salt] | 22 |  |  |  | Ki [1, 9]: 2.7 nM; % Inhibition at 10 μM (μ) [2]: 29%; % Inhibition at 10 μM (κ) ([3]; cloned human κ opioid receptor): 1.3%
CCN(CC)C(=O)c1ccc(C2=CC3(CCNCC3)Oc3ccc(O)cc32)cc1.Cl [Example Z3, 4-[(4-N,N-diethylaminocarbonyl)phenyl]-6-hydroxyspiro[2H,1-benzopyran-2,4′-piperidine]hydrochloride] | 1.4 |  |  |  | Ki [1, 9]: 0.36 nM; % Inhibition at 10 μM (μ) [2]: 50%; Ki ([3]; [3H]diprenorphine displacement, cloned human κ opioid receptor, read-out: Ki(κ)): 790 nM
CCN(CC)C(=O)c1ccc(C2=CC3(CCNCC3)Oc3ccccc32)cc1 [Example 1A] |  |  |  |  | Ki [2]: 980 nM; Ki [3]: > 1000 nM; IMMOBILITY (% Decrease) ([5]; 3 mg/kg p.o.): 17 ± 10%; SWIMMING (% Increase) ([5]; 3 mg/kg p.o.): 37 ± 17%; IMMOBILITY (% Decrease) ([5]; 30 mg/kg p.o.): 43 ± 13 %; SWIMMING (% Increase) ([5]; 30 mg/kg p.o.): 137 ± 35 %
C1=C(c2cccnc2)c2ccccc2OC12CCNCC2 [Example Z12, 4-(3-pyridyl)-spiro[2H,1-benzopyran-2,4′-piperidine]hydrochloride] |  | 54 | 36 | 44 | 
O=C(O)CCCn1nnc(-c2ccc(C3=CC4(CCNCC4)Oc4ccccc43)cc2)n1 [Example Z11, 4-[4-(4-carboxypropyl-tetrazol-2-yl)phenyl]-spiro[2H,1-benzopyran-2,4′-piperidine]] | 140 | 8 | 3.7 | -3.3 | 
CCCN(CC1CC1)C(=O)c1ccc(C2=CC3(CCNCC3)Oc3ccccc32)cc1 [Example Z7, 4-[(4-N-propyl-N-cyclopropylmethylaminocarbonyl)phenyl]-spiro[2H,1-benzopyran-2,4′-piperidine]hydrochloride] | 29 | 1.7 |  | 51 | Ki [2]: 2500 nM
O=C(O)C1CCN(C(=O)c2ccc(C3=CC4(CCNCC4)Oc4ccccc43)cc2)CC1 [Example Z9, 4-[4-(4-carboxypiperidineaminocarbonyl)phenyl]-spiro[2H,1-benzopyran-2,4′-piperidine]hydrochloride] | 160 | 15 | 17 | 24 | 
CCN(CC)C(=O)c1ccc(C2=CC3(CCN(C)CC3)Oc3ccccc32)cc1 [Example Z5, 4-[(4-N,N-diethylaminocarbonyl)phenyl]-N-methyl-spiro[2H,1-benzopyran-2,4′-piperidine]hydrochloride] | 140 | 5.8 | 17 | 23 | 
CS(=O)(=O)c1ccc(C2=CC3(CCNCC3)Oc3ccccc32)cc1 [Example Z13, 4-[4-(methanesulfonyl)-phenyl]-spiro[2H,1-benzopyran-2,4′-piperidine]hydrochloride] |  | 28 | 41 | 17 | 
CCN(CC)C(=O)c1ccc(C2CC3(CCNCC3)Oc3ccccc32)cc1.Cl (centres unmarked) [Example Z4, 4-[(4-N,N-diethylaminocarbonyl)phenyl]-3,4-dihydrospiro[2H,1-benzopyran-2,4′-piperidine]hydrochloride] |  |  |  |  | % Inhibition at 10 μM (μ) [2]: 34%; % Inhibition at 10 μM (κ) ([3]; cloned human κ opioid receptor): 19%
CCN(CC)C(=O)c1ccc(C2=CC3(CC4CCC(C3)N4)Oc3ccccc32)cc1 (centres unmarked) [Example Z14, 4-[(4-N,N-diethylaminocarbonyl)phenyl]spiro[2H,1-benzopyran-2,4′-nortropine]hydrochloride] |  | 26 | 24 | 8 | 
CCN(CC)C(=O)c1ccc(C2=CC3(CCNCC3)Oc3ccc(F)cc32)cc1 [Example Z2, 4-[(4-N,N-diethylaminocarbonyl)phenyl]-6-fluoro-spiro[2H,1-benzopyran-2,4′-piperidine]hydrochloride] | 70 | 2.6 |  | 17 | Ki [2]: 4500 nM
CCN(CC)C(=O)c1ccc(C2=CC3(CCNCC3)Oc3ccccc32)cc1 [Example Z1, 4-[(4-N,N-diethylaminocarbonyl)phenyl]-spiro[2H,1-benzopyran-2,4′-piperidine]hydrochloride] |  |  |  | 32 | ED50 ([6]; Rattus norvegicus, po): 2.5 mg/kg; increase of Paw Pressure Thresholds (PPT) in the inflamed paw ([6]; inflamed paw, 1-2 h after oral administration): 170-180%; inhibition of acetic acid-induced writhing [7]: 69%; ED50 [8]: 8.7 mg/kg

From patent publication US8071611B2, “Spirocyclic heterocyclic derivatives and methods of their use” (Adolor Corporation, priority 2003, dated 2011)
